Data from PubChem BioAssay (NCI).
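In this assay, cells in 96-well plates receive the compound at five concentrations for 48 hours. Endpoints are linearly interpolated between the surrounding concentrations. GI50 is the concentration that inhibits growth by half. TGI: concentration producing complete growth inhibition.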

Experiments:
Experiment in all cases: NCI tumour cell line growth inhibition, 48 h; in the data active = GI50 below about 0.43 µM; inactive = the rest
[1] = test system: OVCAR-5 ovarian
[2] = test system: SN12C renal
[3] = test system: HOP-62 NSCLC
[4] = test system: HT29 colon
[5] = test system: RXF 393 renal
[6] = test system: CCRF-CEM leukemia
[7] = test system: DU-145 prostate
[8] = test system: HOP-92 NSCLC
[9] = test system: U251 CNS
[10] = test system: A549 NSCLC
[11] = test system: BT-549 breast
[12] = test system: SF-539 CNS
[13] = test system: OVCAR-4 ovarian
[14] = test system: HCT-116 colon
[15] = test system: TK-10 renal
[16] = test system: SW-620 colon
[17] = test system: IGROV1 ovarian
[18] = test system: NCI-H23 lung
[19] = test system: EKVX NSCLC
[20] = test system: HCT-15 colon
[21] = test system: NCI/ADR-RES ovarian
[22] = test system: SK-OV-3 ovarian
[23] = test system: UO-31 renal
[24] = test system: K-562 leukemia
[25] = test system: MALME-3M melanoma
[26] = test system: PC-3 prostate
[27] = test system: 786-0 renal
[28] = test system: COLO 205 colon
[29] = test system: A498 renal
[30] = test system: SNB-75 CNS
[31] = test system: T-47D breast
[32] = test system: SNB-19 CNS
[33] = test system: OVCAR-3 ovarian
[34] = test system: M14 melanoma
[35] = test system: NCI-H460 lung
[36] = test system: CAKI-1 renal
[37] = test system: ACHN renal
[38] = test system: SK-MEL-5 melanoma
[39] = test system: MDA-MB-435
[40] = test system: HL-60(TB) leukemia
[41] = test system: SK-MEL-28 melanoma
[42] = test system: SK-MEL-2 melanoma
[43] = test system: KM12 colon
[44] = test system: MDA-MB-231 breast
[45] = test system: NCI-H226 lung
[46] = test system: HCC-2998 colon
[47] = test system: LOX IMVI melanoma
[48] = test system: UACC-257 melanoma
[49] = test system: SF-268 CNS
[50] = test system: HS 578T breast
[51] = test system: SF-295 CNS
[52] = test system: OVCAR-8 ovarian
[53] = test system: NCI-H522 lung
[54] = test system: MCF7 breast
[55] = test system: RPMI-8226 leukemia
[56] = test system: SR leukemia
[57] = test system: UACC-62 melanoma
[58] = test system: MOLT-4 leukemia

COc1ccc(C(=O)c2cc3c(N)c(C(=O)Nc4cccc(Br)c4C)sc3nc2C)cc1
987 nM: TGI [28]
17300 nM: TGI [44]
1670 nM: TGI [8]
80.9 nM: TGI [12]
1810 nM: TGI [38]
58.5 nM: TGI [39]
inactive: GI50 [13] 474 nM | GI50 [15] 36400 nM | GI50 [31] 50400 nM | GI50 [41] > 100000 nM | GI50 [42] 1540 nM | GI50 [48] > 100000 nM
1050 nM: TGI [33]
> 100000 nM: TGI [1] | TGI [2] | TGI [3] | TGI [4] | TGI [6] | TGI [9] | TGI [10] | TGI [11] | TGI [13] | TGI [15] | TGI [16] | TGI [17] | TGI [18] | TGI [19] | TGI [20] | TGI [21] | TGI [22] | TGI [23] | TGI [24] | TGI [25] | TGI [26] | TGI [27] | TGI [30] | TGI [31] | TGI [32] | TGI [34] | TGI [36] | TGI [37] | TGI [41] | TGI [42] | TGI [45] | TGI [46] | TGI [47] | TGI [48] | TGI [49] | TGI [50] | TGI [52] | TGI [53] | TGI [54] | TGI [57] | TGI [58]
260 nM: TGI [29]
95.4 nM: TGI [40]
> 36300 nM: TGI [43]
active: GI50 [1] 187 nM | GI50 [2] 84.4 nM | GI50 [3] 72.9 nM | GI50 [4] 50.9 nM | GI50 [5] 21.4 nM | GI50 [6] 40.9 nM | GI50 [7] 194 nM | GI50 [8] < 44.5 nM | GI50 [9] 51.8 nM | GI50 [10] 132 nM | GI50 [11] 123 nM | GI50 [12] 25.6 nM | GI50 [14] 38 nM | GI50 [16] 46 nM | GI50 [17] 86.9 nM | GI50 [18] 354 nM | GI50 [19] 95.4 nM | GI50 [20] 48.9 nM | GI50 [21] 40.2 nM | GI50 [22] 102 nM | GI50 [23] 219 nM | GI50 [24] 37.5 nM | GI50 [25] 54.2 nM | GI50 [26] 62.4 nM | GI50 [27] 61.6 nM | GI50 [28] 220 nM | GI50 [29] 23.8 nM | GI50 [30] 40.5 nM | GI50 [32] 54.1 nM | GI50 [33] 39.4 nM | GI50 [34] 26.7 nM | GI50 [35] 96.2 nM | GI50 [36] 56.2 nM | GI50 [37] 69.3 nM | GI50 [38] 193 nM | GI50 [39] 22.3 nM | GI50 [40] 28.2 nM | GI50 [43] 68.4 nM | GI50 [44] 130 nM | GI50 [45] 173 nM | GI50 [46] 302 nM | GI50 [47] 61.5 nM | GI50 [49] 173 nM | GI50 [50] 82 nM | GI50 [51] 40.5 nM | GI50 [52] 205 nM | GI50 [53] 41.8 nM | GI50 [54] 39.6 nM | GI50 [55] 37 nM | GI50 [56] 35.4 nM | GI50 [57] 45.6 nM | GI50 [58] 109 nM

O=C(NCCOCCOCCOCCNC(=O)c1cc2c(o1)C(=O)c1ccccc1C2=O)NC12CC3CC(CC(C3)C1)C2
8030 nM: TGI [32]
4400 nM: TGI [33]
5000 nM: TGI [9]
5630 nM: TGI [55]
5460 nM: TGI [42]
inactive: GI50 [1] 1830 nM | GI50 [2] 1340 nM | GI50 [3] 2030 nM | GI50 [4] 2600 nM | GI50 [5] 1580 nM | GI50 [6] 3230 nM | GI50 [7] 628 nM | GI50 [8] 3080 nM | GI50 [9] 2040 nM | GI50 [10] 517 nM | GI50 [11] 1500 nM | GI50 [12] 1590 nM | GI50 [13] 1020 nM | GI50 [14] 2400 nM | GI50 [15] 3680 nM | GI50 [16] 2350 nM | GI50 [17] 2110 nM | GI50 [19] 2570 nM | GI50 [20] 1580 nM | GI50 [21] 2960 nM | GI50 [22] 2840 nM | GI50 [23] 1690 nM | GI50 [24] 1980 nM | GI50 [26] 1950 nM | GI50 [27] 2890 nM | GI50 [28] 1960 nM | GI50 [29] 1690 nM | GI50 [30] 2250 nM | GI50 [31] 1590 nM | GI50 [32] 2060 nM | GI50 [33] 1410 nM | GI50 [34] 462 nM | GI50 [35] 1190 nM | GI50 [36] 2370 nM | GI50 [37] 1750 nM | GI50 [40] 2160 nM | GI50 [41] 1940 nM | GI50 [42] 2150 nM | GI50 [43] 3340 nM | GI50 [44] 3040 nM | GI50 [45] 1560 nM | GI50 [46] 1990 nM | GI50 [47] 843 nM | GI50 [48] 1360 nM | GI50 [49] 2290 nM | GI50 [50] 2180 nM | GI50 [51] 1650 nM | GI50 [52] 1440 nM | GI50 [53] 1780 nM | GI50 [54] 1160 nM | GI50 [55] 1870 nM | GI50 [56] 2370 nM | GI50 [57] 571 nM | GI50 [58] 2870 nM
4060 nM: TGI [30]
16600 nM: TGI [44]
3070 nM: TGI [51]
3750 nM: TGI [41]
3680 nM: TGI [20]
3160 nM: TGI [12] | TGI [47]
3300 nM: TGI [29]
8530 nM: TGI [17]
3770 nM: TGI [23]
7070 nM: TGI [19]
6220 nM: TGI [49]
10700 nM: TGI [8]
3050 nM: TGI [5]
8910 nM: TGI [24]
489 nM: TGI [25]
11000 nM: TGI [27]
2830 nM: TGI [48]
2270 nM: TGI [13]
11700 nM: TGI [56]
10100 nM: TGI [21]
1360 nM: TGI [39]
6460 nM: TGI [40]
8340 nM: TGI [52]
1890 nM: TGI [7]
2340 nM: TGI [10]
3280 nM: TGI [1]
7260 nM: TGI [16]
1920 nM: TGI [57]
7240 nM: TGI [15]
8950 nM: TGI [14]
2710 nM: TGI [2]
3530 nM: TGI [3]
11500 nM: TGI [36]
1020 nM: TGI [38]
1970 nM: TGI [18]
6850 nM: TGI [50]
13000 nM: TGI [43]
4020 nM: TGI [46]
6790 nM: TGI [4]
6020 nM: TGI [31]
3250 nM: TGI [11]
2930 nM: TGI [35]
3220 nM: TGI [54]
3660 nM: TGI [45]
> 100000 nM: TGI [6]
7430 nM: TGI [22]
8040 nM: TGI [58]
4210 nM: TGI [37]
1800 nM: TGI [34]
4950 nM: TGI [53]
13400 nM: TGI [26]
active: GI50 [18] 234 nM | GI50 [25] 191 nM | GI50 [38] 303 nM | GI50 [39] 388 nM
3970 nM: TGI [28]
